In patent publication US7737180B2, “Use of neboglamine (CR 2249) as an antipsychotic and neuroprotective” (Rottapharm S.p.A., priority 2004, dated 2010):
Marks after values point to notes of the source that are not given here.

Tests used:
[1] = test system: PCP-induced inhibition of the acoustic prestimulus (PPI); test: Reversion of PCP-induced inhibition of the acoustic prestimulus (PPI) in the rat; assay type: in vivo
From the text: The first model used was the study of PCP-induced inhibition of the acoustic prestimulus (PPI) in the rat.
This phenomenon is known as “pre-pulse inhibition” (PPI). […] Such a deficit may be reproduced experimentally with drugs which induce psychotic phenomena, such dopamine agonists and NMDA antagonists.
The method is based on that reported by Swerdlow et al. [J. Pharmacol. Exp. Ther. 256 530-536 (1991)] with slight modifications. An acrylic cylinder is used which is equipped with a piezoelectric sensor mounted under the cylinder which detects and transduces movements of the cylinder. A background noise of 60 dB is provided and subsequently two acoustic stimuli separated by 500 ms, the first of which is 20 dB above the background noise, while the second (startle stimulus) is 120 dB for a duration of 40 ms. The session of 30 trials at 30 second intervals with an overall duration of approx. 15 minutes involved subjecting the animal randomly to a startle stimulus either isolated or preceded by the low intensity stimulus. PPI was calculated as a percentage reduction in the level of startle in the presence of the prestimulus compared to that without the acoustic prestimulus. Rats weighing approx. 250 g were used, which were treated intraperitoneally (i.p.) with the products under investigation 15 minutes prior to subcutaneous (s.c.) administration of 3 mg/kg of PCP and 30 minutes before the beginning of the experiment.

[2] = test system: hippocampal ischaemia by bilateral occlusion of the carotid arteries; test: Ischaemia induced in the gerbil by bilateral occlusion of the carotid arteries (hippocampal neuroprotection); assay type: in vivo; settings: for area (mm2): mean ± SD; for % mortality: ischaemia group 28.57
Procedure: It was accordingly decided to investigate the possible neuroprotective effects of neboglamine and CR 2863 on a model of hippocampal ischaemia brought about in the gerbil by bilateral occlusion of the carotid arteries.
In brief, halothane-anaesthetised animals are subjected to bilateral occlusion of the carotid arteries for 5 minutes. After 7 days, the animals are sacrificed, the brain is removed, deep frozen and 10 μm sections from the hippocampal area are prepared which are stained with cresyl violet. A quantitative determination (in mm^2) of the area occupied by […] pyramidal neurons is then performed by means of an image analyser. The type of hippocampal neurodegeneration arising from this model of ischaemia involves a significant reduction in the area of the neuronal nuclei. The drugs were administered intraperitoneally (i.p.) 1 h before the ischaemia.

[3] = test system: NMDA-evoked 3H-dopamine release in slices of rat prefrontal cortex; test: PCP-induced blocking of NMDA-evoked 3H-dopamine release in slices of rat frontal cortex; assay type: cell-based
Procedure: Neboglamine's ability to reverse the effect of PCP at a neuronal level was also evaluated in an in vitro test carried out on slices of rat frontal cortex.
The method involved preparing 0.4 mm thick cortical slices, incubating them for 20 minutes with ^3H-dopamine in physiological solution in the presence of 0.1 μM 6-nitroquipazine and 0.1 μM nisoxetine (selective serotonin and noradrenaline reuptake inhibitors), aerated with 95% O2+5% CO2 at 37° C., which, after appropriate washing with artificial cerebrospinal fluid (aCSF), were superperfused for 30 minutes with aCFS at a rate of 1 ml/minute to equilibrate the system. Then, PCP and neboglamine were added at the stated concentrations to the perfusion liquid for the entire duration of the experiment, while, after 45 minutes, NMDA (100 μM) stimulation was provided for 5 minutes. Another four 5 minute fractions of eluate were then collected and their radioactivity determined.
The effect of the drugs was evaluated by calculating the ratio between the percentage radioactivity present in the effluent fraction corresponding to the maximum effect and that in the first effluent fraction collected.

[4] = test system: PCP-induced depression (swimming test); test: Reversion of PCP-induced depression in the mouse swimming test; assay type: in vivo
From the text: An animal model of depression (which may be considered as a negative symptom of schizophrenia) was then used to study the activity of neboglamine on the PCP-induced depressive effects in the mouse using the swimming test according to Porsolt et al. [Arch. Int. Pharmadyn. 229, 327-336 (1977)].
The test involves inducing a state of depression in the animal, which is forced to swim in a glass cylinder from which it cannot escape. The state of depression was accentuated by 14 days' pre-treatment with a daily 10 mg/kg (s.c.) injection of PCP. On the 15th day, the animals were additionally pretreated (i.p.) with physiological solution or neboglamine 30 minutes before the beginning of the test. The duration of immobility (sign of depression) in seconds was evaluated during the experiment of an overall duration of 360 seconds. The results obtained in this manner, calculated between the 3rd and 6th minute of the experiment, i.e. for a period of […], are shown in Table 2.

CC1(C)CCC(N)CC1 [CR 2863, 4,4-dimethylcyclohexylamine]
times less active than the parent (neboglamine) ([1]; rat PPI model): approx. 3 times | PPI (% inhibition) ([1]; rat, drug 10 mg/kg i.p. 15 min before PCP 3 mg/kg s.c., n=10): 38* % | % inhibition by PCP ([1]; rat, drug 10 mg/kg i.p. + PCP, calculated by formula): 51.4% | % protection ([2]; 4 mg/kg i.p.): 24.88% | area (mm2) ([2]; 4 mg/kg i.p. 1 h before ischaemia, sham 22.39, ischaemia 5.55): 9.74 ± 0.9*^+ mm2 | % mortality ([2]; 4 mg/kg i.p.): 11.11% | % protection ([2]; 8 mg/kg i.p.): 39.25% | area (mm2) ([2]; 8 mg/kg i.p. 1 h before ischaemia): 12.16 ± 5.49 mm2 | % mortality ([2]; 8 mg/kg i.p.): 5.88% | % protection ([2]; 16 mg/kg i.p.): 57.82% | area (mm2) ([2]; 16 mg/kg i.p. 1 h before ischaemia): 15.23 ± 5.49*^+ mm2

CN[C@H](CC(=O)O)C(=O)O [NMDA]
% increase in NMDA-evoked 3H-dopamine release ([3]; Control: NMDA 100 μM alone): 120%

c1ccc(C2(N3CCCCC3)CCCCC2)cc1 [PCP, Phenylcyclidine]
% increase in NMDA-evoked 3H-dopamine release ([3]; NMDA 100 μM + PCP 0.1 μM): 64% | increase of duration of immobility relative to untreated control group ([4]; 2 weeks' chronic PCP): approx. 3 times | Immobility ([4]; PCP only group, 14 days 10 mg/kg s.c. daily, control 48): 130 s | PPI (% inhibition) ([1]; rat, PCP only group, 3 mg/kg s.c., control 55%): 20%
